Values quoted from earlier work, collected in patent publication US20140342380A1, “VERIFYING THE SOURCE OF BIOLOGICAL SAMPLES; METHOD, COMPOSITION AND KIT THEREFOR” (priority 2011, published 2014).
Read-outs that look alike come from different tables or passages of the source.

Columns and labels:
[1] = cited from earlier work
[2] = cited from earlier work; remark: listed apart in the source

CCCCCCCCCCCCOC(=O)CCSCCC(=O)OCCCCCCCCCCCC [Dilauryl thiodipropionate (DLTDP), Dilauryl thiodipropionate]
metabolite(s) / form excreted in urine after ingestion ([1]; Table 1 note, species not stated): Dilauryl thiodipropionate (DLTDP), Ingested DLTDP was excreted in the urine as thiodipropionic

O=C(OC[C@H]1O[C@@H](OC(=O)c2cc(O)c(O)c(OC(=O)c3cc(O)c(O)c(O)c3)c2)[C@H](OC(=O)c2cc(O)c(O)c(OC(=O)c3cc(O)c(O)c(O)c3)c2)[C@@H](OC(=O)c2cc(O)c(O)c(OC(=O)c3cc(O)c(O)c(O)c3)c2)[C@@H]1OC(=O)c1cc(O)c(O)c(OC(=O)c2cc(O)c(O)c(O)c2)c1)c1cc(O)c(O)c(OC(=O)c2cc(O)c(O)c(O)c2)c1 [Tannic acid]
metabolite(s) found after ingestion ([2]; Table 1 note, cited study in rat): Tannic acid: metabolized to 4-0-Methylgallic acid (4-OMGA), pyrogallol (PY), and resorcinol

C=CCc1ccc(O)c(OC)c1 [eugenol]
metabolite(s) found after ingestion ([2]; rat, in vivo): eugenol clove leaf oil metabolized to Glucuronide and sulfate conjugates were identified in urine.

inulin
renal handling / detection in urine after consumption ([1]; general statement): readily passively filtered by the kidney, e.g., detected in the urine after consumption
